In series [1] the test system is capsaicin-induced hyperalgesia. Briefly: Antihyperalgesic effect on capsaicin-induced hyperalgesia, VAS pain assessment, Phase 1b study. It counts as in vivo, human. How it is done: On Day 1 and Day 14 of the clinical study, two intradermal injections of 250 μg of capsaicin were injected sequentially into the volar aspect of alternate forearms to produce burning pain, secondary hyperalgesia, and a flare. The capsaicin USP (United States Pharmacopeia) was prepared according to the site's standard procedure and dissolved in 20% cyclodextrin at a concentration of 10 mg/mL. The first capsaicin injection in one forearm was given 1 hour after oral administration of L-4-chlorokynurenine or placebo, and the second capsaicin injection was given in the other forearm 2 hours after the administration of L-4-chlorokynurenine or placebo. The neurosensory testing began immediately at each capsaicin injection. The serial pain assessments using a 100-mm visual analog scale (VAS) occurred at preinjection and 0, 5, 10, 15, 30, 45, and 60 minutes after each capsaicin injection. The examiner asked the subject to rate the intensity by using the VAS of the spontaneous pain and elicited pain from the application of a 5.18 von Frey hair, 40° C. probe, and gentle stroking with a 1-inch foam brush. The VAS consisted of a 100-mm line with “no pain” written at the 0-mm end and the “worst imaginable pain” written at the 100-mm end. The distance in millimeters provided the pain measurement. […] At least eight determinations of the hyperalgesic area borders were made using the same assessments and starting at different angles. Additionally, subjects were asked to rate the pain intensity of a 1-minute 45° C. heat stimulus (brief thermal stimulation) applied to the anterior thigh at 4.5 hours (±5 minutes) after study drug administration, then every 30 minutes (±5 minutes) through 6 hours after study drug administration. A radiant temperature probe was applied to fix the skin temperature at 36° C. during the pain assessments. Subjects used the VAS for all pain assessments. All study assessment time points were anchored to Time 0, the time of study drug administration. […]

In series [2] the test system is three animal models of peripheral tissue inflammation and nerve injury. Description: Animal models of peripheral tissue inflammation and nerve injury. In kind it is in vivo.
Series [3] deals with patients with a diagnosis of MDD. Description: Treatment of major depressive disorder, HDRS / MADRS (Example 3). It counts as in vivo, human. Conditions: 1,080 or 1,440 mg/day orally for 2 weeks. How it is done: Twenty-five patients, both male and female, ages 18 to 65, with a diagnosis of MDD are treated with either L-4-chlorokynurenine (1,080 or 1,440 mg/day given orally) for 2 weeks, similar in design to similar studies. [Ibrahim et al. 2012, Zarate et al. 2013, Zarate et al. 2006, Zarate et al. 2005.] […] [Montgomery et al. 1979] Additional indicators of therapeutic efficacy for a given patient could also be the proportion of subjects achieving remission (HDRS≤7) and response (≥50% reduction from baseline in HDRS total score); change from baseline in Hamilton Anxiety Rating Scale (HAM-A) [Hamilton 1959], Columbia Suicide Severity Rating Scale (C-SSRS) total scores [Posner et al. 2011], as well as other measures of mood or psychological states, for example Beck Depression Inventory (BDI) [Beck et al., 1974], the Visual Analogue Scale (VAS) [Aitken 1969], the Brief Psychiatric Rating Scale (BPRS) [Overall et al. 1962], the Clinician Administered Dissociative Scale (CADSS) [Bremner et al. 1998] and the Young Mania Rating Scale (YMRS) [Young et al. 1978].

Series [4] deals with patients with obsessive-compulsive disorder. Description: Treatment of obsessive-compulsive disorder, OCD-VAS / Y-BOCS. It counts as in vivo, human. The settings on record: about 20 to about 2,000 mg/day. The procedure:
Patients with obsessive-compulsive disorder (OCD) are treated with L-4-chlorokynurenine to reduce OCD symptoms. […] The dose of L-4-chlorokynurenine is selected from about 20 mg/day up to about 2,000 mg/day, more preferably about 300 mg/day to about 1,500 mg/day and more preferably about 700 mg/day to about 1,200 mg/day.

Series [5] deals with patients with chronic tinnitus. Description: Treatment of tinnitus, TQ / SF-36 / audiometric parameters (Example 5). In kind it is in vivo, human. The settings on record: daily oral dose escalated 180, 720, 1440 mg/day. The procedure:
One hundred male or female patients between 20-65 years of age with mon- or binaural chronic tinnitus lasting for at least 3-months are enrolled in the study. Patients are randomized into a drug and placebo groups, baseline psychometric and health measurements are taken, followed by blind administration of a daily single oral dose for 14-days of either L-4-chlorokynurenine (initial dose of 180 mg) or placebo. Subsequent psychometric and health measurements are taken at 3-, 7-, and 14-days post (prior to next drug administration) drug administration. At 14, and 28 days the dose of AV-101 is increased to 720 and 1440 mg/day respectively. At 42 and 70 days, all patients are given the panel of psychometric and health measurements. […]
Primary success measures are a statistically significant difference between the mean TQ scores of L-4-chlorokynurenine and placebo groups. […] Student t-test for independent samples or the Mann-Whitney test at each time point are used to assess the statistical significance of the quantitative data. The significance of the qualitative data is assessed with chi-square test or the Fisher exact test. To assess improvement over time and dose, TQ and secondary measurements are evaluated using Friedman Variance Analysis and similar tools for variance analysis.

The conditions of series [6]: human, in vivo, po.
Procedure: (§1) Subjects were randomized into one of three cohorts (360, 1,080, and 1,440 mg) and received a daily oral dose for 14 consecutive days. […] However, a total of 50 subjects were enrolled in this study. […] Forty-six subjects completed the study per protocol.
(§2) Blood was collected in 6-mL lithium heparin Vacutainer tubes. Samples were centrifuged, and the plasma was separated from the cells and frozen within 30 minutes after centrifugation. Centrifuged samples were placed on ice until they were placed in the freezer. Plasma samples were stored frozen at approximately −20° C. until their shipment to a contractor for analysis.
(§3) Baseline samples (0 minutes) were collected before the drug was administered on Day 1 and on Day 14. Samples were then collected at 0.5, 1, 1.5, 2, 4, 6, 8, 12, and 24 hours after dosing on Day 1 and Day 14.
(§4) Both assays used a plasma sample volume of 50.0 μg/mL.
For series [7] the following is noted: cited from earlier work.
In the next series the test system is dopaminergic neurons. Conditions: brains of rats; cited from earlier work.
Series [8] addresses NMDA receptor glycine B (GlyB) coagonist site (Homo sapiens, UniProt Q05586). The settings on record: vs naturally occurring kynurenic acid; cited from earlier work.
Series [9] in a line: Phase 1b clinical study, plasma pharmacokinetics after oral L-4-chlorokynurenine (LC-MS/MS). Conditions: human plasma.
Procedure: as §1, §2, §3, §4

Take `Nc1cc(Cl)ccc1C(=O)CC(N)C(=O)O` [L-4-chlorokynurenine]: in series [1] (1,080 mg (Cohort 2)), the “Least squares means of the AUPC for allodynia pain, mechanical hyperalgesia pain and heat hyperalgesia pain vs placebo” value was “consistent decrease”. Further, the “Secondary efficacy endpoints (AUPC spontaneous pain, elicited pain von Frey hair, 40° C. probe), treatment vs placebo” value in [1] (120 to 180 min Day 1, 60 to 180 min Days 1 and 14) is reported as “no significant changes”. Also, the “Area under the pain time curve (AUPC) for spontaneous pain, treatment vs placebo (primary efficacy endpoint)” value in series [1] (each dose level, 120 to 180 minutes after dosing on Day 14) is on record as “no significant change”. The “Antihyperalgesic action in animal models” value in series [2] is recorded as “potent antihyperalgesic actions”. In addition, in series [3], the “HDRS and/or MADRS total scores (overall depressive symptomatology)” value is recorded as “significant decrease”. In addition, in [4], the “OCD symptoms (OCD-VAS, Y-BOCS)” value is “Patients show improvement”. The “Symptoms of tinnitus (TQ, SF-36)” value in [5] is “show improvement”. For the same compound, in series [6], the “Mean L-4-chlorokynurenine AIC0-t” value was 196000 ng·h/mL; the “Mean L-4-chlorokynurenine Cmax and AIC0-t on Day 14 compared with Day 1” value is on record as “slightly lower on Day 14”; the “Mean t1/2 of L-4-chlorokynurenine” value lay in the range of 1.64 to 1.82 h. Further, the “Access to the central nervous system” value in series [7] (after oral or parenteral administration) is “readily gains access to the central nervous system”. Moreover, the “Firing rate and burst firing activity of dopaminergic neurons” value in the series with dopaminergic neurons is “increase”.

Regarding `O=C(O)c1cc(O)c2ccc(Cl)cc2n1` [7-chlorokynurenic acid], the “Crossing of the blood-brain barrier” value in [7] (in vivo) is given as “does not cross the blood-brain barrier”. For the same compound, the “Potency and selectivity relative to endogenous KYNA” value in series [8] was “about 20 ×”. The “Mean 7-chlorokynurenic acid AIC0-t” value turned out to be 985 ng·h/mL in series [9] (Day 1, after 1,440-mg oral dose of L-4-chlorokynurenine) and 156 ng·h/mL in series [9] (Day 1, after lowest oral dose (360 mg) of L-4-chlorokynurenine). Moreover, the “Mean 7-chlorokynurenic acid Cmax and AIC0-t on Day 14 compared with Day 1” value in [9] (once-daily oral doses of L-4-chlorokynurenine for 14 days) is “slightly lower on Day 14”.

The values are drawn from patent US20240122887A1, “THERAPEUTIC USES OF L-4-CHLOROKYNURENINE” (VISTAGEN THERAPEUTICS, INC., priority 2015, published 2024).
